# Tests used:
# SETVI [1] = experiment: Pre-emergence action against SETVI, 1280 g/ha; assay type: in vivo, Setaria viridis; details: visual scoring after about 3 weeks vs untreated controls, 100% = plants have died, 0% = like control plants
# Procedure, shortened: (§1)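 Pre-emergence pot test: seeds in sandy loam, soil-covered, sprayed on soil surface (WP/EC, 0.5% additive, 600 L/ha water); greenhouse ~3 wk; visual % effect vs untreated, 0–100%.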
# POAAN [2] = experiment: Post-emergence action against POAAN, 1.28 kg/ha; assay type: in vivo, Poa annua; details: dosage 1280 g/ha, visual rating about 3 weeks after treatment vs untreated controls
# Procedure, shortened: (§2)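 Activity scored visually roughly 3 weeks after treatment against untreated plants (0% = as control, 100% = dead). Plants grown in sandy loam in greenhouse, treated at one-leaf stage, 2–3 weeks post-sowing, with WP/EC spray containing 0.5% additive at 600 l/ha.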
# POAAN [3] = experiment: Pre-emergence action against POAAN, 1280 g/ha; assay type: in vivo, Poa annua; details: visual scoring after about 3 weeks vs untreated controls, 100% = plants have died, 0% = like control plants
# Procedure, shortened: as §1
# ALOMY [4] = experiment: Post-emergence action against ALOMY, 320 g/ha; assay type: in vivo, Alopecurus myosuroides; details: dosage 320 g/ha, visual rating about 3 weeks after treatment vs untreated controls (100% = plants died)
# Procedure, shortened: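 Herbicidal effect is scored by eye about 3 weeks after a foliar spray and expressed as percent activity, with untreated plants as 0% and dead plants as 100%. Treatment is applied at the one-leaf stage of greenhouse-grown, soil-sown plants, at a water rate of 600 l/ha containing 0.5% additive.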
# AVEFA [5] = experiment: Post-emergence action at 320 g/ha against AVEFA; assay type: in vivo; details: visual rating about 3 weeks after treatment vs untreated controls
# Text: (§3) Accordingly, the compounds of the invention have good herbicidal action against a broad spectrum of weed grasses and broad-leaved weeds and are therefore suitable for controlling unwanted vegetation by the post-emergence method. • b) Seeds of monocotyledonous and dicotyledonous weeds and crop plants are placed in sandy loam in plastic or organic planting pots, covered with soil and cultivated in a greenhouse under controlled growth conditions. 2 to 3 weeks after sowing, the test plants are treated at the one-leaf stage. The compounds of the invention, formulated in the form of wettable powders (WP) or as emulsion concentrates (EC), are then sprayed onto the green parts of the plants as aqueous suspension or emulsion with addition of 0.5% additive at a water application rate of 600 l/ha (converted). After the test plants have been kept in the greenhouse under optimum growth conditions for about 3 weeks, the activity of the preparations is rated visually in comparison to untreated controls. For example, 100% activity=the plants have died, 0% activity=like control plants. Tables 39 to 49 below show the effects of selected compounds of the general formula (I) according to Tables 1 and 2 on various harmful plants and at an application rate corresponding to 320 g/ha, which were obtained by the experimental procedure mentioned above.
# AMARE [6] = experiment: Post-emergence action against AMARE, 1.28 kg/ha; assay type: in vivo, Amaranthus retroflexus; details: dosage 1280 g/ha, visual rating about 3 weeks after treatment vs untreated controls (100% = plants died)
# Procedure, shortened: as §2
# LOLRI = experiment: Pre-emergence action against LOLRI, 1280 g/ha; assay type: in vivo, Lolium rigidum; details: visual scoring after about 3 weeks vs untreated controls, 100% = plants have died, 0% = like control plants
# Procedure, shortened: as §1
# AVEFA [7] = experiment: Pre-emergence action at 320 g/ha against AVEFA; assay type: in vivo; details: visual scoring after about 3 weeks vs untreated controls
# Procedure, shortened: (§4)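 Effect rated visually (% vs untreated control) about 3 weeks after pre-emergence spraying of WP/EC formulation onto soil; spray carried 0.5% additive at 600 l/ha water.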
# STEME [8] = experiment: Pre-emergence action against STEME, 1280 g/ha; assay type: in vivo, Stellaria media; details: scored visually after about 3 weeks vs untreated controls (100% = plants have died)
# Procedure, shortened: as §1
# DIGSA [9] = experiment: Pre-emergence action against DIGSA, 1280 g/ha; assay type: in vivo, Digitaria sanguinalis; details: visual scoring after about 3 weeks vs untreated controls, 100% = plants have died, 0% = like control plants
# Procedure, shortened: as §1
# POLCO [10] = experiment: Pre-emergence action at 320 g/ha against POLCO; assay type: in vivo, Fallopia convolvulus (Polygonum convolvulus); details: visual scoring after about 3 weeks vs untreated controls
# Procedure, shortened: as §4
# SETVI [11] = experiment: Post-emergence action against SETVI, 1.28 kg/ha; assay type: in vivo, Setaria viridis; details: dosage 1280 g/ha, visual rating about 3 weeks after treatment vs untreated controls
# Procedure, shortened: as §2
# MATIN [12] = experiment: Post-emergence action against MATIN, 1.28 kg/ha; assay type: in vivo, Tripleurospermum inodorum (Matricaria inodora); details: dosage 1280 g/ha, visual rating about 3 weeks after treatment vs untreated controls (100% = plants died)
# Procedure, shortened: as §2
# DIGSA [13] = experiment: Post-emergence action against DIGSA, 1.28 kg/ha; assay type: in vivo, Digitaria sanguinalis; details: dosage 1280 g/ha, visual rating about 3 weeks after treatment vs untreated controls
# Procedure, shortened: as §2
# STEME [14] = experiment: Post-emergence action against STEME, 1.28 kg/ha; assay type: in vivo, Stellaria media; details: dosage 1280 g/ha, visual rating about 3 weeks after treatment vs untreated controls (100% = plants died)
# Procedure, shortened: as §2
# VERPE [15] = experiment: Pre-emergence action against VERPE, 1280 g/ha; assay type: in vivo, Veronica persica; details: scored visually after about 3 weeks vs untreated controls (100% = plants have died)
# Procedure, shortened: as §1
# ALOMY [16] = experiment: Pre-emergence action against ALOMY, 1280 g/ha; assay type: in vivo, Alopecurus myosuroides; details: visual scoring after about 3 weeks vs untreated controls, 100% = plants have died, 0% = like control plants
# Procedure, shortened: as §1
# ABUTH [17] = experiment: Pre-emergence action against ABUTH, 1280 g/ha; assay type: in vivo, Abutilon theophrasti; details: scored visually after about 3 weeks vs untreated controls (100% = plants have died)
# Procedure, shortened: as §1
# VERPE [18] = experiment: Pre-emergence action at 320 g/ha against VERPE; assay type: in vivo, Veronica persica; details: visual scoring after about 3 weeks vs untreated controls
# Procedure, shortened: as §4
# ECHCG [19] = experiment: Pre-emergence action against ECHCG, 1280 g/ha; assay type: in vivo, Echinochloa crus-galli; details: visual scoring after about 3 weeks vs untreated controls, 100% = plants have died, 0% = like control plants
# Procedure, shortened: as §1
# MATIN [20] = experiment: Pre-emergence action at 320 g/ha against MATIN; assay type: in vivo, Tripleurospermum inodorum (Matricaria inodora); details: visual scoring after about 3 weeks vs untreated controls
# Procedure, shortened: as §4
# MATIN [21] = experiment: Pre-emergence action against MATIN, 1280 g/ha; assay type: in vivo, Tripleurospermum inodorum (Matricaria inodora); details: scored visually after about 3 weeks vs untreated controls (100% = plants have died)
# Procedure, shortened: as §1
# DIGSA [22] = experiment: Post-emergence action at 320 g/ha against DIGSA; assay type: in vivo, Digitaria sanguinalis; details: dosage 320 g/ha, visual rating about 3 weeks after treatment vs untreated controls (100% = plants died)
# Text: as §3
# VERPE [23] = experiment: Post-emergence action against VERPE, 1.28 kg/ha; assay type: in vivo, Veronica persica; details: dosage 1280 g/ha, visual rating about 3 weeks after treatment vs untreated controls (100% = plants died)
# Procedure, shortened: as §2
# POLCO [24] = experiment: Post-emergence action at 320 g/ha against POLCO; assay type: in vivo, Fallopia convolvulus (Polygonum convolvulus); details: visual rating about 3 weeks after treatment vs untreated controls
# Text: as §3
# VIOTR = experiment: Pre-emergence action at 320 g/ha against VIOTR; assay type: in vivo, Viola tricolor; details: dosage 320 g/ha
# Procedure, shortened: as §4
# AMARE [25] = experiment: Pre-emergence action against AMARE, 1280 g/ha; assay type: in vivo, Amaranthus retroflexus; details: scored visually after about 3 weeks vs untreated controls (100% = plants have died)
# Procedure, shortened: as §1
# ABUTH [26] = experiment: Post-emergence action at 320 g/ha against ABUTH; assay type: in vivo, Abutilon theophrasti; details: visual rating about 3 weeks after treatment vs untreated controls
# Text: as §3
# AMARE [27] = experiment: Pre-emergence action at 320 g/ha against AMARE; assay type: in vivo, Amaranthus retroflexus; details: visual scoring after about 3 weeks vs untreated controls
# Procedure, shortened: as §4
# ECHCG [28] = experiment: Post-emergence action against ECHCG, 1.28 kg/ha; assay type: in vivo, Echinochloa crus-galli; details: dosage 1280 g/ha, visual rating about 3 weeks after treatment vs untreated controls
# Procedure, shortened: as §2
# SETVI [29] = experiment: Post-emergence action at 320 g/ha against SETVI; assay type: in vivo, Setaria viridis; details: visual rating about 3 weeks after treatment vs untreated controls
# Text: as §3
# DIGSA [30] = experiment: Pre-emergence action at 320 g/ha against DIGSA; assay type: in vivo, Digitaria sanguinalis; details: visual scoring after about 3 weeks vs untreated controls
# Procedure, shortened: as §4
compound,measurement,setting,value
CCOC(=O)COc1nn(-c2ccccc2F)c(-c2cncnc2)c1Br [VI-001],Pre-emergence action against SETVI,SETVI [1],100%
same,Post-emergence action against POAAN,POAAN [2],100%
same,Pre-emergence action against POAAN,POAAN [3],100%
same,Post-emergence action against ALOMY,ALOMY [4],90%
same,Post-emergence action against AVEFA in %,AVEFA [5],80%
same,Post-emergence action against AMARE,AMARE [6],90%
same,Pre-emergence action against LOLRI,LOLRI,100%
same,Pre-emergence action against AVEFA in %,AVEFA [7],90%
same,Pre-emergence action against STEME,STEME [8],100%
same,Pre-emergence action against DIGSA,DIGSA [9],90%
same,Pre-emergence action against POLCO in %,POLCO [10],100%
same,Post-emergence action against SETVI,SETVI [11],100%
same,Post-emergence action against MATIN,MATIN [12],90%
same,Post-emergence action against DIGSA,DIGSA [13],100%
same,Post-emergence action against STEME,STEME [14],100%
same,Pre-emergence action against VERPE,VERPE [15],100%
same,Pre-emergence action against ALOMY,ALOMY [16],90%
same,Pre-emergence action against ABUTH,ABUTH [17],90%
same,Pre-emergence action against VERPE in %,VERPE [18],100%
same,Pre-emergence action against ECHCG,ECHCG [19],100%
same,Pre-emergence action against MATIN in %,MATIN [20],90%
same,Pre-emergence action against MATIN,MATIN [21],100%
same,Post-emergence action at 320 g/ha against DIGSA in %,DIGSA [22],90%
same,Post-emergence action against VERPE,VERPE [23],100%
same,Post-emergence action against POLCO in %,POLCO [24],90%
same,Pre-emergence action against VIOTR in %,VIOTR,100%
same,Pre-emergence action against AMARE,AMARE [25],100%
same,Post-emergence action against ABUTH in %,ABUTH [26],80%
same,Pre-emergence action against AMARE in %,AMARE [27],100%
same,Post-emergence action against ECHCG,ECHCG [28],100%
same,Post-emergence action against SETVI in %,SETVI [29],80%
same,Pre-emergence action against DIGSA in %,DIGSA [30],100%
